{"source": "patent US20140273093A1", "about": "“METHODS OF PRODUCING ANTIBODIES IN YEAST” (BRISTOL-MYERS SQUIBB COMPANY, priority 2013, published 2014)", "system": "P. pastoris", "experiment": "P. pastoris fed-batch fermentation Run 01MAY11: effects of hydroxyurea on cell growth and anti-IL-6 antibody productivity", "format": "cell-based, Pichia pastoris", "settings": "for Sup Titer / WCW / WB Titer: Lots T5, T6 & T10; for Sup Titer / WB Titer: hydroxyurea 2.6-2.8 g/L; for WCW: hydroxyurea 2.6-2.8 g/L added 5 hours after feed start; for WB Titer: calculated from supernatant titer and WCW", "description": "The glucose and ethanol were measured by YSI 2700 (YSI Incorporated, Yellow Springs, Ohio), O2 and CO2 of the exhaust line were measured by Questor GP Process Mass Spectrometer (ABB Extrel, Pittsburg, Pa.) and the RQ value was calculated using below Equation [1]. The wet cell weight (WCW) was measured by centrifuging 1 milliliter (mL) fermentation broth at 13,200 rpm for 10 minutes, weighing pellet, and calculated ratio of pellets weight (g) over volume (mL). The supernatant titer (g/L) was measured by the HPLC method and the whole broth (WB) titer was then calculated by below Equation [2].\nWB_Titer=Supernatant_Titer*(1−WCW/1000)\nThe treatment cultures were operated the same way plus adding hydroxyurea 5 hours after feed start."}
{"smiles": "NC(=O)NO", "note": "[Hydroxyurea]", "values": [{"measurement": "average whole broth titer", "setting": "90 hours run time, three hydroxyurea treatment lots, control 59.8", "result": 75, "unit": "normalized units"}, {"measurement": "Sup Titer", "setting": "Age 59 h", "result": "83.9 ± 2.2", "unit": "Normalized"}, {"measurement": "WCW", "setting": "Age 59 h", "result": "437 ± 17", "unit": "g/kg"}, {"measurement": "WB Titer", "setting": "Age 59 h", "result": "47.2 ± 1.8", "unit": "Normalized"}, {"measurement": "Sup Titer", "setting": "Age 90 h", "result": "123.3 ± 5.8", "unit": "Normalized"}, {"measurement": "WCW", "setting": "Age 90 h", "result": "392 ± 20", "unit": "g/kg"}, {"measurement": "WB Titer", "setting": "Age 90 h", "result": "75.0 ± 2.7", "unit": "Normalized"}, {"measurement": "WCW reached/maintained by hydroxyurea treatment lots", "setting": "after peak cell density at 30-40 hours, control lots ~400 g/Kg", "result": "~450", "unit": "g/kg"}]}
